From the supplement of paper PMC10307832

What was measured:
Experiment in all cases: relative viability (nuclei count vs DMSO), 5 days (fraction); higher = more cells survive
Sorafenib + Dasatinib = compound: CNC(=O)c1cc(Oc2ccc(NC(=O)Nc3ccc(Cl)c(C(F)(F)F)c3)cc2)ccn1 [Sorafenib] + Cc1nc(Nc2ncc(C(=O)Nc3c(C)cccc3Cl)s2)cc(N2CCN(CCO)CC2)n1 [Dasatinib] (partner 0.075 µM)
In short: (§1)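 Relative viability divides the nuclei count in treated wells by that in vehicle wells. Lung cancer cell lines were seeded in 1536-well plates, dosed by pin tool the next day, and fixed and stained after 5 days in one step with final 0.05% Triton X-100, 1% formaldehyde and 1 ug/ml Hoechst. Dosing was a single drug or a fixed anchor-drug dose plus five library-drug doses (not always all listed) in √10 steps, and values are medians of duplicate plates imaged at 4×.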

Sorafenib + OSI-027 = compound: CNC(=O)c1cc(Oc2ccc(NC(=O)Nc3ccc(Cl)c(C(F)(F)F)c3)cc2)ccn1 [Sorafenib] + COc1cccc2cc(-c3nc([C@H]4CC[C@H](C(=O)O)CC4)n4ncnc(N)c34)[nH]c12 [OSI-027] (partner 0.5 µM)
In short: as §1

Sorafenib + Crizotinib = compound: CNC(=O)c1cc(Oc2ccc(NC(=O)Nc3ccc(Cl)c(C(F)(F)F)c3)cc2)ccn1 [Sorafenib] + C[C@@H](Oc1cc(-c2cnn(C3CCNCC3)c2)cnc1N)c1c(Cl)ccc(F)c1Cl [Crizotinib] (partner 1 µM)
In short: as §1

Sorafenib + Linsitinib = compound: CNC(=O)c1cc(Oc2ccc(NC(=O)Nc3ccc(Cl)c(C(F)(F)F)c3)cc2)ccn1 [Sorafenib] + C[C@]1(O)C[C@@H](c2nc(-c3ccc4ccc(-c5ccccc5)nc4c3)c3c(N)nccn32)C1 [Linsitinib] (partner 1 µM)
In short: as §1

Sorafenib + Tozasertib = compound: CNC(=O)c1cc(Oc2ccc(NC(=O)Nc3ccc(Cl)c(C(F)(F)F)c3)cc2)ccn1 [Sorafenib] + Cc1cc(Nc2cc(N3CCN(C)CC3)nc(Sc3ccc(NC(=O)C4CC4)cc3)n2)n[nH]1 [Tozasertib] (partner 0.1 µM)
In short: as §1

Work on CAL-12T yielded a relative viability (Sorafenib + Dasatinib; first compound 0.08 µM) of 0.658, a relative viability (Sorafenib + Dasatinib; first compound 2.53 µM) of 0.415 and a relative viability (Sorafenib + Dasatinib; first compound 8 µM) of 0.114. For the same cell line, the relative viability (Sorafenib + OSI-027; first compound 0.08 µM) was 0.78, the relative viability (Sorafenib + OSI-027; first compound 0.253 µM) was 0.492 and the relative viability (Sorafenib + OSI-027; first compound 2.53 µM) was 0.565. It also gave a relative viability (Sorafenib + OSI-027; first compound 8 µM) of 0.299, a relative viability (Sorafenib + Crizotinib; first compound 0.08 µM) of 0.751 and a relative viability (Sorafenib + Crizotinib; first compound 0.253 µM) of 0.581. For the same cell line, the relative viability (Sorafenib + Crizotinib; first compound 2.53 µM) was 0.524, the relative viability (Sorafenib + Crizotinib; first compound 8 µM) was 0.381 and the relative viability (Sorafenib + Linsitinib; first compound 0.08 µM) was 0.889. The relative viability (Sorafenib + Linsitinib; first compound 2.53 µM) was 0.834, the relative viability (Sorafenib + Linsitinib; first compound 8 µM) was 0.656 and the relative viability (Sorafenib + Tozasertib; first compound 0.08 µM) was 0.354. It also gave a relative viability (Sorafenib + Tozasertib; first compound 0.253 µM) of 0.284, a relative viability (Sorafenib + Tozasertib; first compound 2.53 µM) of 0.271 and a relative viability (Sorafenib + Tozasertib; first compound 8 µM) of 0.219.

In the case of EMC-BAC-2, the relative viability (Sorafenib + Dasatinib; first compound 0.08 µM) is reported as 0.301, the relative viability (Sorafenib + Dasatinib; first compound 0.253 µM) is reported as 0.268 and the relative viability (Sorafenib + Dasatinib; first compound 2.53 µM) is reported as 0.354. For the same cell line, the relative viability (Sorafenib + Dasatinib; first compound 8 µM) was 0.299, the relative viability (Sorafenib + OSI-027; first compound 0.08 µM) was 0.341 and the relative viability (Sorafenib + OSI-027; first compound 0.253 µM) was 0.358. It also gave a relative viability (Sorafenib + OSI-027; first compound 2.53 µM) of 0.391, a relative viability (Sorafenib + OSI-027; first compound 8 µM) of 0.358 and a relative viability (Sorafenib + Crizotinib; first compound 0.08 µM) of 0.648. For the same cell line, the relative viability (Sorafenib + Crizotinib; first compound 0.253 µM) was 0.728, the relative viability (Sorafenib + Crizotinib; first compound 2.53 µM) was 0.762 and the relative viability (Sorafenib + Crizotinib; first compound 8 µM) was 0.809. It also gave a relative viability (Sorafenib + Linsitinib; first compound 0.08 µM) of 0.821, a relative viability (Sorafenib + Linsitinib; first compound 0.253 µM) of 0.788 and a relative viability (Sorafenib + Linsitinib; first compound 2.53 µM) of 0.838. For the same cell line, the relative viability (Sorafenib + Linsitinib; first compound 8 µM) was 0.771, the relative viability (Sorafenib + Tozasertib; first compound 0.08 µM) was 0.297 and the relative viability (Sorafenib + Tozasertib; first compound 0.253 µM) was 0.186. The relative viability (Sorafenib + Tozasertib; first compound 2.53 µM) was 0.266 and the relative viability (Sorafenib + Tozasertib; first compound 8 µM) was 0.295.

For NCI-H838, the relative viability (Sorafenib + Dasatinib; first compound 0.08 µM) was 0.285, the relative viability (Sorafenib + Dasatinib; first compound 0.253 µM) was 0.277 and the relative viability (Sorafenib + Dasatinib; first compound 2.53 µM) was 0.318. The relative viability (Sorafenib + Dasatinib; first compound 8 µM) was 0.293, the relative viability (Sorafenib + OSI-027; first compound 0.08 µM) was 0.52 and the relative viability (Sorafenib + OSI-027; first compound 0.253 µM) was 0.438. For the same cell line, the relative viability (Sorafenib + OSI-027; first compound 2.53 µM) was 0.615, the relative viability (Sorafenib + OSI-027; first compound 8 µM) was 0.539 and the relative viability (Sorafenib + Crizotinib; first compound 0.08 µM) was 0.931. For the same cell line, the relative viability (Sorafenib + Crizotinib; first compound 0.253 µM) was 0.946, the relative viability (Sorafenib + Crizotinib; first compound 2.53 µM) was 0.991 and the relative viability (Sorafenib + Crizotinib; first compound 8 µM) was 0.903. The relative viability (Sorafenib + Linsitinib; first compound 0.08 µM) was 1.1, the relative viability (Sorafenib + Linsitinib; first compound 2.53 µM) was 1.24 and the relative viability (Sorafenib + Linsitinib; first compound 8 µM) was 0.485. It also gave a relative viability (Sorafenib + Tozasertib; first compound 0.08 µM) of 0.278, a relative viability (Sorafenib + Tozasertib; first compound 0.253 µM) of 0.261 and a relative viability (Sorafenib + Tozasertib; first compound 2.53 µM) of 0.284. For the same cell line, the relative viability (Sorafenib + Tozasertib; first compound 8 µM) was 0.197.

With NCI-H460 the relative viability (Sorafenib + Dasatinib; first compound 0.08 µM) was 0.554, the relative viability (Sorafenib + Dasatinib; first compound 0.253 µM) was 0.541 and the relative viability (Sorafenib + Dasatinib; first compound 2.53 µM) was 0.498. For the same cell line, the relative viability (Sorafenib + Dasatinib; first compound 8 µM) was 0.416, the relative viability (Sorafenib + OSI-027; first compound 0.08 µM) was 0.761 and the relative viability (Sorafenib + OSI-027; first compound 0.253 µM) was 0.596. For the same cell line, the relative viability (Sorafenib + OSI-027; first compound 2.53 µM) was 0.459, the relative viability (Sorafenib + OSI-027; first compound 8 µM) was 0.0191 and the relative viability (Sorafenib + Crizotinib; first compound 0.08 µM) was 1.02. For the same cell line, the relative viability (Sorafenib + Crizotinib; first compound 0.253 µM) was 0.777, the relative viability (Sorafenib + Crizotinib; first compound 2.53 µM) was 0.918 and the relative viability (Sorafenib + Crizotinib; first compound 8 µM) was 0.502. The relative viability (Sorafenib + Linsitinib; first compound 0.08 µM) was 0.838, the relative viability (Sorafenib + Linsitinib; first compound 0.253 µM) was 0.771 and the relative viability (Sorafenib + Linsitinib; first compound 2.53 µM) was 0.684. The relative viability (Sorafenib + Linsitinib; first compound 8 µM) was 0.215, the relative viability (Sorafenib + Tozasertib; first compound 0.08 µM) was 0.514 and the relative viability (Sorafenib + Tozasertib; first compound 0.253 µM) was 0.386. For the same cell line, the relative viability (Sorafenib + Tozasertib; first compound 2.53 µM) was 0.414 and the relative viability (Sorafenib + Tozasertib; first compound 8 µM) was 0.0751.

With HCC-15 the relative viability (Sorafenib + Dasatinib; first compound 0.08 µM) was 0.697, the relative viability (Sorafenib + Dasatinib; first compound 0.253 µM) was 0.68 and the relative viability (Sorafenib + Dasatinib; first compound 2.53 µM) was 0.774. The relative viability (Sorafenib + Dasatinib; first compound 8 µM) was 0.417, the relative viability (Sorafenib + OSI-027; first compound 0.08 µM) was 0.631 and the relative viability (Sorafenib + OSI-027; first compound 0.253 µM) was 0.558. It also gave a relative viability (Sorafenib + OSI-027; first compound 2.53 µM) of 0.712, a relative viability (Sorafenib + OSI-027; first compound 8 µM) of 0.386 and a relative viability (Sorafenib + Crizotinib; first compound 0.08 µM) of 0.836. It also gave a relative viability (Sorafenib + Crizotinib; first compound 0.253 µM) of 0.774, a relative viability (Sorafenib + Crizotinib; first compound 2.53 µM) of 0.813 and a relative viability (Sorafenib + Crizotinib; first compound 8 µM) of 0.566. For the same cell line, the relative viability (Sorafenib + Linsitinib; first compound 0.253 µM) was 0.873, the relative viability (Sorafenib + Linsitinib; first compound 2.53 µM) was 0.846 and the relative viability (Sorafenib + Linsitinib; first compound 8 µM) was 0.554. It also gave a relative viability (Sorafenib + Tozasertib; first compound 0.08 µM) of 0.443, a relative viability (Sorafenib + Tozasertib; first compound 0.253 µM) of 0.438 and a relative viability (Sorafenib + Tozasertib; first compound 2.53 µM) of 0.372. The relative viability (Sorafenib + Tozasertib; first compound 8 µM) was 0.179.

ABC-1 gave a relative viability (Sorafenib + Dasatinib; first compound 0.08 µM) of 0.625, a relative viability (Sorafenib + Dasatinib; first compound 0.253 µM) of 0.493 and a relative viability (Sorafenib + Dasatinib; first compound 2.53 µM) of 0.619. It also gave a relative viability (Sorafenib + Dasatinib; first compound 8 µM) of 0.351, a relative viability (Sorafenib + OSI-027; first compound 0.08 µM) of 0.575 and a relative viability (Sorafenib + OSI-027; first compound 0.253 µM) of 0.49. It also gave a relative viability (Sorafenib + OSI-027; first compound 2.53 µM) of 0.654, a relative viability (Sorafenib + OSI-027; first compound 8 µM) of 0.37 and a relative viability (Sorafenib + Crizotinib; first compound 0.08 µM) of 1.4. The relative viability (Sorafenib + Crizotinib; first compound 0.253 µM) was 1.07, the relative viability (Sorafenib + Crizotinib; first compound 8 µM) was 1.04 and the relative viability (Sorafenib + Linsitinib; first compound 0.08 µM) was 0.837. The relative viability (Sorafenib + Linsitinib; first compound 0.253 µM) was 0.893, the relative viability (Sorafenib + Linsitinib; first compound 2.53 µM) was 0.918 and the relative viability (Sorafenib + Linsitinib; first compound 8 µM) was 0.956. It also gave a relative viability (Sorafenib + Tozasertib; first compound 0.08 µM) of 0.227, a relative viability (Sorafenib + Tozasertib; first compound 0.253 µM) of 0.219 and a relative viability (Sorafenib + Tozasertib; first compound 2.53 µM) of 0.214. For the same cell line, the relative viability (Sorafenib + Tozasertib; first compound 8 µM) was 0.185.

With LCLC-103H the relative viability (Sorafenib + Dasatinib; first compound 0.08 µM) was 0.617, the relative viability (Sorafenib + Dasatinib; first compound 0.253 µM) was 0.424 and the relative viability (Sorafenib + Dasatinib; first compound 2.53 µM) was 0.44. It also gave a relative viability (Sorafenib + Dasatinib; first compound 8 µM) of 0.497, a relative viability (Sorafenib + OSI-027; first compound 0.08 µM) of 0.556 and a relative viability (Sorafenib + OSI-027; first compound 0.253 µM) of 0.425. The relative viability (Sorafenib + OSI-027; first compound 2.53 µM) was 0.528, the relative viability (Sorafenib + OSI-027; first compound 8 µM) was 0.469 and the relative viability (Sorafenib + Crizotinib; first compound 0.08 µM) was 1.12. It also gave a relative viability (Sorafenib + Crizotinib; first compound 0.253 µM) of 1.14, a relative viability (Sorafenib + Crizotinib; first compound 2.53 µM) of 1.28 and a relative viability (Sorafenib + Crizotinib; first compound 8 µM) of 1.13. For the same cell line, the relative viability (Sorafenib + Linsitinib; first compound 0.08 µM) was 1.21, the relative viability (Sorafenib + Linsitinib; first compound 0.253 µM) was 0.981 and the relative viability (Sorafenib + Linsitinib; first compound 2.53 µM) was 1.12. The relative viability (Sorafenib + Linsitinib; first compound 8 µM) was 1.2, the relative viability (Sorafenib + Tozasertib; first compound 0.08 µM) was 0.489 and the relative viability (Sorafenib + Tozasertib; first compound 0.253 µM) was 0.548. The relative viability (Sorafenib + Tozasertib; first compound 2.53 µM) was 0.419 and the relative viability (Sorafenib + Tozasertib; first compound 8 µM) was 0.569.
